# Data published in article PMC2346451 (PLoS ONE, 2008).
# What was measured:
# [1] = system: chicken rat TRPV1 chimera (crcTRPV1, CRC V2–V4); test: Whole-cell patch clamp of chicken rat TRPV1 chimera in HEK-293T cells; type: cell-based; details: n = 6
# Description: (§1) Transformed human embryonic kidney-293 (HEK-293T) cells were grown in Dulbecco's modified Eagle's medium (DMEM)+F-12 supplemented with 10% fetal calf serum, and 1% penicillin/streptomycin in 5% CO2 at 37°C. Cells grown to 90% confluence in 35 mm Petri dishes were transiently transfected with plasmid DNA encoding a TRP channel construct (1 µg). Rat TRPV1 (rTRPV1) was cloned into an enhanced green fluorescent protein-containing vector (pTracer-CMV2; Invitrogen, Carlsbad, CA). Chicken TRPV1 (cTRPV1), the chicken rat TRPV1 chimera (crcTRPV1), rat TRPV2 (rTRPV2), mouse TRPV3 (mTRPV3), mouse TRPV4 (mTRPV4), rat TRPM8 (rTRPM8), and rat TRPA1 (rTRPA1), were cloned into pcDNA3 and co-transfected with enhanced green fluorescent protein (0.1 µg) to follow expression. The cTRPV1 and crcTRPV1 clones were kindly provided by Dr. David Julius. Recordings were carried out 24–36 hours after transfection. Cells were split via trypsin EDTA, plated on glass coverslips at 5–10% confluence, and used 2–3 hours later.
# Electrophysiological experiments were performed using the whole-cell patch-clamp technique at room temperature. […]
# Recordings were obtained using an Axopatch 200B amplifier, Digidata 1322A analog-to-digital converter, and pClamp 8.01 software (Molecular Devices, Union City, CA). […] Cell capacitance was measured for each cell, and access resistance compensated to ∼80%. […]
# [2] = target: T1, rat TRPV1 tyrosine to alanine point mutant at residue 511 (Rattus norvegicus, UniProt O35433, Y511A); test: Patch clamp of capsaicin-insensitive rat TRPV1 point mutant; type: cell-based; details: data not shown
# T1 construct: expressed in transfected cells; host or cells: HEK-293T (inferred from the general methods)
# [3] = no reference given; cited from earlier work
# [4] = system: dorsal root ganglion neurons; test: Whole-cell patch clamp of acutely isolated dorsal root ganglion neurons; type: cell-based, rat
# Source text: Dorsal root ganglion neurons from all spinal levels were removed from postnatal day 12 to 20 Sprague Dawley rats and the nerve roots trimmed. Calcium- and magnesium-free (CMF) Hank's solution contained (in mM): 136.9 sodium chloride, 5.4 potassium chloride, 0.34 dibasic sodium orthophosphate, 0.44 monopotassium phosphate, 5.6 glucose, 5 4-(2-hydroxyethyl)-1-piperazineethanesulfonic acid, 0.005% phenol red, pH 7.4. CMF Hank's was used throughout the isolation and enzymatic treatments. The isolated ganglia were treated for 20 minutes at 37°C with 20 U/ml of papain (Worthington Biochemical, Lakewood, NJ) and 5 mM cysteine. The ganglia were then transferred to CMF Hank's with 3 mg/ml collagenase (type I; Worthington) and 4 mg/ml dispase (neutral type II; Roche Applied Science, Indianapolis, IN) for 20 minutes at 37°C. Individual neurons were dispersed by trituration through a fire-polished glass Pasteur pipette in 3 ml of media containing DMEM, 5% horse serum, 10% fetal bovine serum, 1% penicillin/streptomycin, and 100 ng/ml Nerve Growth Factor (7S subunit; Invitrogen). The neurons were preplated in tissue culture-treated Petri dishes for 1 hour when used for electrophysiology (3 hours for calcium imaging), and then plated on poly-L-lysine (1 mg/ml)-coated glass coverslips. Dorsal root ganglion neurons were allowed to settle for 1–2 hours at 37°C before patching or imaging over the next 6 hours.
# (§2) Electrophysiological experiments were performed using the whole-cell patch-clamp technique at room temperature. Modified Ringer's solution with low chloride and nominal calcium contained (in mM): 130 sodium hydroxide, 5 potassium chloride, 1 magnesium chloride, 10 sodium 4-(2-hydroxyethyl)-1-piperazineethanesulfonic acid, 10 2-(N-morpholino)ethanesulfonic acid, and 20 glucose (pH 7.4; 310 milli-osmolar). […] 2 mM calcium chloride was included in the external solution where noted. To activate TRPV1, the modified Ringer's solution was made at pH 5 (low pH solution) and the chloride concentration was kept to a minimum to prevent contamination of the TRPV1 currents with acid-activated chloride currents. For recordings from heterologously expressing cells, the internal pipette solution contained (in mM): 125 cesium-Methanesulfonate, 10 cesium (1.2-bis(o-aminophenoxy)ethane-N,N,N',N'-tetraacetic acid, 8 sodium chloride, 4 magnesium adenosine triphosphate, and 10 HEPES (pH 7.2; 290 mOSM; nominal free calcium concentrations). For TRPA1 and dorsal root ganglion recordings, the internal pipette solution contained (in mM): 110 cesium-Methanesulfonate, 0.5 cesium4BAPTA, 8 sodium chloride, 0.2 calcium chloride, 4 magnesium-ATP, 4 sodium-GTP, and 10 4-(2-hydroxyethyl)-1-piperazineethanesulfonic acid (pH 7.2; 290 mOSM; 100 nM free calcium internal). MaxChelator was used to calculate the free calcium concentration (http://www.stanford.edu/cpatton/maxc.html).
# (§3) Recordings were obtained using an Axopatch 200B amplifier, Digidata 1322A analog-to-digital converter, and pClamp 8.01 software (Molecular Devices, Union City, CA). Data were low-pass filtered at 2 kHz and digitized at 5 kHz. Borosilicate glass pipettes (World Precision Instruments, Sarasota, FL) were typically 3 MΩ pipette resistance after fire polishing. Cell capacitance was measured for each cell, and access resistance compensated to ∼80%. Recordings were begun ∼5 minutes after initial rupture to ensure initial steady state conditions. Current-voltage (I-V) relations were obtained using a ramp protocol. Voltage ramps (400 ms) from −100 to +40 or +100 mV were applied every 1–2 seconds and the holding potential was either −70 mV or 0 mV (see Figure Legends). A 40 ms step was added at the beginning and end of the ramp (i.e. at −100 mV, +40 mV or +100 mV). Liquid junction potentials were not corrected.
# [5] = in humans; cited from earlier work
# mouse TRPV4 (mTRPV4) = target: T2, mouse TRPV4 (mTRPV4) (Mus musculus, UniProt Q9EPK8); test: Whole-cell patch clamp of mouse TRPV4 expressed in HEK-293T cells; type: cell-based; parameters: key to Agonist efficacy: Ø - not activated
# T2 construct: expressed in transfected cells; host or cells: HEK-293T
# Description: as §1, §2
# as §3, with “corrected. […]” for “corrected.”
# T2 sequence (Q9EPK8 whole entry): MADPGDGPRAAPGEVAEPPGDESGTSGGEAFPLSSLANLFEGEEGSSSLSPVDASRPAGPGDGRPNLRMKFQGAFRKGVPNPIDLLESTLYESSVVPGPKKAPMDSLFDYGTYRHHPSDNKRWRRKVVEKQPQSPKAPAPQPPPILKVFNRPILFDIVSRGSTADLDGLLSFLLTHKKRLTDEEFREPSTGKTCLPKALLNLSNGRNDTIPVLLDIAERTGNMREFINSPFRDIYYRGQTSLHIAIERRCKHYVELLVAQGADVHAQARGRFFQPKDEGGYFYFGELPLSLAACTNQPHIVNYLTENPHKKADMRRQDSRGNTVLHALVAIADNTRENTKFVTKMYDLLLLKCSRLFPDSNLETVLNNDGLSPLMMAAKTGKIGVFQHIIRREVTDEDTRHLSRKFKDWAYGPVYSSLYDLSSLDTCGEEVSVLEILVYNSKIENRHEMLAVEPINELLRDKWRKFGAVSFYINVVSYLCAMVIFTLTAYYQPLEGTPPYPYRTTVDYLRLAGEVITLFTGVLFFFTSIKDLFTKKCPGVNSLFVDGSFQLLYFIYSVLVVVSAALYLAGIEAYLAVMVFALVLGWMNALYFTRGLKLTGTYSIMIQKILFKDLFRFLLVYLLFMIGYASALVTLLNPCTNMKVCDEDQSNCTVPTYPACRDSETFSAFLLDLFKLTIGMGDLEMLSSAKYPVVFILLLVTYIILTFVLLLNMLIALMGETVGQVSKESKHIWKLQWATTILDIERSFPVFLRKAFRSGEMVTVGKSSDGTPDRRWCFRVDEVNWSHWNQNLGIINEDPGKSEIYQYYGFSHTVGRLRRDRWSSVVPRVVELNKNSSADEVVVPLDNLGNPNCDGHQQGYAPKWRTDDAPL
# T1 sequence (O35433 whole entry Y511A): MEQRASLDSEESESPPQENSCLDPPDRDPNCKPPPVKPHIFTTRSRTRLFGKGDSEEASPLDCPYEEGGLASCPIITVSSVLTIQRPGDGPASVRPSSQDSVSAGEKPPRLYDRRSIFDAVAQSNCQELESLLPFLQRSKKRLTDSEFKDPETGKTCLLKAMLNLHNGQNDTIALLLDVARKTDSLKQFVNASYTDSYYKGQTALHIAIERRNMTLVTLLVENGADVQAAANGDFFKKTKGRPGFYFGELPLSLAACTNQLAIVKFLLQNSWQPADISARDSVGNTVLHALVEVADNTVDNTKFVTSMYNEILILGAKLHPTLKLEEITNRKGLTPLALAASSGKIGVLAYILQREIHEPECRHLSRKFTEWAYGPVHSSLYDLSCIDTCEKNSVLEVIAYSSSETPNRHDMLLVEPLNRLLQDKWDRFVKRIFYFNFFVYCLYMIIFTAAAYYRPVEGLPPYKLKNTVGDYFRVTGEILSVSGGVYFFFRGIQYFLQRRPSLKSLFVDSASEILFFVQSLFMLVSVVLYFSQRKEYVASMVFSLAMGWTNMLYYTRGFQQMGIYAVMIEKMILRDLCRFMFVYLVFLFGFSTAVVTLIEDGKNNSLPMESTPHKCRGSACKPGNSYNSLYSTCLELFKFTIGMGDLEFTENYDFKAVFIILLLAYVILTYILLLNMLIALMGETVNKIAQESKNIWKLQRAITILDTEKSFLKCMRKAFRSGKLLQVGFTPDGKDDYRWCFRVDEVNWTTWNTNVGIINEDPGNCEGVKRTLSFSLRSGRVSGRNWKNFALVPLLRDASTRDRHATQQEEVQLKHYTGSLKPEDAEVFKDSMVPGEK
structure (smiles),measurement,setting,value
"CC(C)=CCCC(C)=CC=O [citral, 3,7-dimethyl-2,6-octadienal]",Activation of CRC V2–V4 chimera currents,[1],restored citral activation
same,Response of capsaicin-insensitive TRPV1 point mutant,[2],remained responsive to citral
same,log P (oil/water) coefficient,[3],three
same,Block of TRPV1-like currents evoked by capsaicin,[4]; 1 µM capsaicin,94%
same,Effect on fast inward current (primarily voltage-gated sodium channels),[4]; 1 mM citral,partially blocked
same,Increase of outward currents,"[4]; 1 mM citral, n = 8",2.7±0.5 fold
same,Capsaicin response recovered after citral washout,"[4]; 5 minutes after washout, n = 8",3±1.5%
same,Potentiation of TRPV1-like current prior to inhibition,"[4]; capsaicin activation, n = 17",1.1±0.03 fold
same,Initial (constitutive) outward current inhibited,[4]; citral at pH 5,79%
same,Block of TRPV1-like currents evoked by pH 5 solution,[4]; pH 5,100%
same,Potentiation of TRPV1-like current prior to inhibition,"[4]; pH 5 activation, n = 20",1.5±0.1 fold
same,Concentration at which therapeutic effects have been attributed,[5],1 to 100 µM
same,Agonist efficacy,mouse TRPV4 (mTRPV4),Ø
same,Reversibility of citral inhibition of agonist-evoked current,"mouse TRPV4 (mTRPV4); 4α-phorbol-12, 13-didecanoate-evoked",rapidly reversed
same,Effect of citral addition on agonist-induced current,"mouse TRPV4 (mTRPV4); 4α-phorbol-12, 13-didecanoate-induced, n = 9",not increased
same,Hill coefficient (inhibition),"mouse TRPV4 (mTRPV4); citral block of 4α-phorbol-12, 13-didecanoate-evoked current",0.9
same,Kd,"mouse TRPV4 (mTRPV4); read-out: Inhibition KD, app",32 µM
